{"source": "paper PMC8922758", "about": "“A new therapeutic approach for bone metastasis in colorectal cancer: intratumoral melittin” (The Journal of Venomous Animals and Toxins Including …, 2022)", "key": {"[1]": {"system": "HT-29 CRC bone metastasis xenograft", "assay": "Histopathological analysis of the metastasis", "type": "in vivo, Balb/c-nu mice", "conditions": "H&E", "text": "After the anesthetic procedure by the parenteral anesthetic drug overdose, the animals were euthanized. The tumor was then resected entirely for anatomopathological analysis. The external surface of the sample was inspected. The opened and cleaned specimens were immersed in formalin overnight for fixation and embedded in paraffin. Metastasis was sliced to assess bone invasion. Tumor 3 µm sections were stained with hematoxylin-eosin and subjected to optical microscopy. Metastasis diagnosis and histological features were determined."}, "[2]": {"assay": "Animal follow up: signs of toxicity, body weight, organ histopathology", "type": "in vivo, Balb/c-nu mice", "procedure": "Signals of suffering and toxicity were carefully observed daily. The following general behaviors were observed: low activity, appetite loss, personality changes, immobility, social isolation, urine and feces consistency changes, lack of personal hygiene, and self-mutilation. Specific to mice, weight loss, dehydration, piloerection, and screams when touched were evaluated.\nMoreover, immediately after euthanized, liver, kidneys, and heart were removed from the animals for histopathological analysis, which was conducted with the same method described above."}, "[3]": {"system": "HT-29 CRC bone metastasis xenograft", "assay": "Bone metastasis in colorectal cancer mouse model, metastasis volume after intrametastatic injection", "type": "in vivo, Balb/c-nu mice", "procedure": "Six-week-old Balb/c-nu male mice (n = 9), weighing 23,76 ± 3,11 g, from Charles River Laboratories International Inc. (Wilmington, USA) were housed in individual ventilated racks. All animals were kept under controlled light conditions (12 h light/12 dark cycles), temperature (23 ± 1 °C), humidity (40%-60%), water, and feed ad libitum.\nThe procedures were performed in a laminar flow with rigorous asepsis and antisepsis techniques. On day 0, to perform the cell inoculation, mice were anesthetized with xylazine hydrochloride 2% plus ketamine, diluted 1:2 (0.3 mL/20 g), and administered via intramuscular injection. Briefly, cells were suspended in 40 μL of saline. A percutaneous 45° puncture was performed. Bone scarification was performed with the bevel of the hypodermic needle carefully to avoid transfixing the skullcap. Then, without needle exchange, cells (4 × 10^6 cells) were injected over the periosteal in the parietal region using a 1 mL syringe and 36G caliber hypodermic needle.\nAfter xenograft, the animals were monitored daily. Metastasis was verified and measured every day. In case of signs, the animal is euthanized immediately. Metal calipers checked the volume. The growth curves were determined using the formula: Volume = L × S^2/2, where \"S\" is the smallest diameter measured and \"L\" is the largest diameter measured.\nAfter the tumor reached 100 mm^3 (by the 19th day after xenograft), the animals were randomized into groups:\nAfter anesthesia, 1,5 mg/kg single dose of melittin was injected in the metastasis with a sterile syringe, as deep as possible, without trespassing the tumor. Without removing the needle, 50 µL of solution was applied slowly for a homogenous distribution into the metastasis, equally distributed (10 µL) in the center and cardinal points. After the administration, the needle remained in the metastasis for 20 seconds before being slowly removed to avoid extravasation."}, "[4]": {"assay": "Mass spectrometry characterisation (aggregation state)", "type": "physicochemical", "conditions": "LC-MS, Q-Exactive Plus, C18, before application in the animals", "text": "The purity and identity were confirmed by mass spectrometry using a Q-Exactive Plus (Thermo Fisher Scientific, Waltham, Massachusetts, USA). The peptide was inserted into a C18 column (EASY-Spray™ LC Columns, Thermo Fisher Scientific, Waltham, Massachusetts, USA) coupled to a liquid chromatography binary system (EASY-nLC 1,200, Thermo Scientific, Waltham, Massachusetts, USA) and eluted with a gradient of 5%-80% of solvent A (water containing 0.1% formic acid) and B (90% acetonitrile containing 0.1% formic acid) with a constant flow of 100 nL/min. The eluted was automatically inserted in the mass spectrometer, operating in positive mode, in MS mode of a full scan of 300-1500 m/z."}, "[5]": {"conditions": "cited from earlier work", "text": "The peptide inhibited approximately 50% of the growth of metastasis. […] In a recent paper melittin could be detected in patients up to 30 days after envenomation, clearly indicating bioaccumulation corroborating the effects of the single-dose treatment. Besides, melittin has the ability to improves sy ..."}, "[6]": {"system": "HT-29 human colorectal cancer cells", "assay": "MTT cytotoxicity assay", "type": "cell-based", "conditions": "48 h incubation", "procedure": "Human CRC (HT-29) was purchased from the European Collection of Authenticated Cell Cultures. It was thawed and propagated in […] flasks at 37 °C in a 5% CO2 humidified chamber (HeraCELL 150) in Dulbecco's modified Eagle's medium (DMEM; Sigma D-5648, São Paulo, Brazil) supplemented with 100 mM sodium pyruvate (Gibco, Thermo Fisher Scientific, Waltham, Massachusetts, USA), 10% fetal bovine serum (FBS) (Gibco, Fisher Scientific, Waltham, Massachusetts, USA), and 1% antibiotics (100 U/mL penicillin and 10 mg/mL streptomycin, Gibco). Cells were detached using 0.25% trypsin-EDTA (Gibco, Fisher Scientific, Waltham, Massachusetts, USA) at 37 °C for 3 min. DMEM plus 10% FBS was used to block the trypsin. The cell pellet was transferred to a new 75 cm^3 flask containing 10 mL DMEM. The culture medium was changed every 24 h. Cell viability was evaluated in the Neubauer chamber using Trypan Blue.\nTo check the viability, the culture fluid is removed and 5 × 10^5cells per well were treated with melittin (0.0625, 0.125, 0.25, 0.5, 1.0, 2.0, 35 and 70 µM). After 48 h of incubation, MTT (3-(4,5-dimethylthiazol-2-yl)-2,5-diphenyltetrazolium bromide) 0.5 mg/mL was added to each well and incubated at 37 °C for 4 h to determine the number of living cells. […] Then, the optical density was detected by a microplate reader at a wavelength of 540 nm (EPOCH, BioTech Instrument Inc., Winooski, VT, USA). […]"}}, "data": [{"smiles": "CC[C@H](C)[C@H](NC(=O)CN)C(=O)NCC(=O)N[C@@H](C)C(=O)N[C@H](C(=O)N[C@@H](CC(C)C)C(=O)N[C@@H](CCCCN)C(=O)N[C@H](C(=O)N[C@@H](CC(C)C)C(=O)N[C@H](C(=O)N[C@H](C(=O)NCC(=O)N[C@@H](CC(C)C)C(=O)N1CCC[C@H]1C(=O)N[C@@H](C)C(=O)N[C@@H](CC(C)C)C(=O)N[C@H](C(=O)N[C@@H](CO)C(=O)N[C@@H](Cc1c[nH]c2ccccc12)C(=O)N[C@H](C(=O)N[C@@H](CCCCN)C(=O)N[C@@H](CCCNC(=N)N)C(=O)N[C@@H](CCCCN)C(=O)N[C@@H](CCCNC(=N)N)C(=O)N[C@@H](CCC(N)=O)C(=O)N[C@@H](CCC(N)=O)C(N)=O)[C@@H](C)CC)[C@@H](C)CC)[C@@H](C)O)[C@@H](C)O)C(C)C)C(C)C", "note": "[melittin]", "values": [{"measurement": "microscopy of treated metastasis, mitosis rate", "setting": "[1]; melittin-treated animals n = 6", "value": "low mitosis rate"}, {"measurement": "microscopy of treated metastasis, tumor cells", "setting": "[1]; last experimental day (day 27), n = 6", "value": "necrosis and absence of tumor cells"}, {"measurement": "death or severe toxicity signs", "setting": "[2]; after intrametastatic treatment, 1,5 mg/kg single dose", "value": "no death or severe toxicity signs"}, {"measurement": "signs of envenomation", "setting": "[2]; daily observation after 1,5 mg/kg single intrametastatic dose", "value": "did not show signs of envenomation"}, {"measurement": "local reaction at injection site", "setting": "[2]; day 20, the day after intrametastatic injection of 1,5 mg/kg", "value": "local inflammation"}, {"measurement": "histopathological analysis of liver, kidney and heart", "setting": "[2]; day 27, seven days after single dose, H&E", "value": "no signals of toxicity"}, {"measurement": "body weight versus untreated animals", "setting": "[2]; three days after administration, p < 0.01, n = 6 vs n = 3", "value": "greater weight loss than those untreated"}, {"measurement": "inhibition of growing metastasis", "setting": "[3]; 1,5 mg/kg single intrametastatic dose on day 19, 2 days after the treatment, n = 6 vs untreated n = 3, p < 0.001", "value": "approximately 50%"}, {"measurement": "metastasis reduction", "setting": "[3]; after a single intrametastatic dose, 1,5 mg/kg", "value": 53, "unit": "%"}, {"measurement": "metastasis regrowth", "setting": "[3]; seven days after single-dose injection", "value": "metastases started growing again"}, {"measurement": "aggregation state by mass spectrometry", "setting": "[4]", "value": "monomeric structure without aggregation"}, {"measurement": "time melittin is detectable in patients after envenomation", "setting": "[5]", "value": "up to 30 days"}, {"measurement": "maximum inhibition of HT-29 proliferation", "setting": "[6]; 2 µM, mean of triplicates", "value": 80, "unit": "%"}, {"measurement": "decrease of the initial HT-29 cell number", "setting": "[6]; 0.0625-70 µM, triplicates", "value": "about 20%"}]}]}
